Series [1] is described as follows: Non-clinical safety studies of R921218 (summary). Also on record: species or system rodents and non-rodents. The conditions noted are these: in vivo. The text has this:
A short discussion of key toxicology studies is provided.

The subject of series [2] is bone marrow derived mast cells (BMMC). As to the kind of experiment: BMMC high cell density IgE activation: LTC4. The conditions noted are these: High Density; read-out: BMMC anti-IgE LTC4. Format: cell-based, mouse. As for the experimental part:
After sensitizing, cells are counted, pelleted (1000 rpm, 5-10 minutes), and resuspended at 1-3×10^6 cells/ml in MT buffer. Add 100 ul of cell suspension to each well and 100 ul of compound dilutions. The final vehicle concentration is 0.5% DMSO. Incubate at 37° C. (5% CO2) for 1 hour. After 1 hour of compound treatment, stimulate cells with 6× stimulus (60 ng/ml DNP-BSA). Mix wells with the cells and allow plates to incubate at 37° C. (5% CO2) for one hour. After 1 hour incubation, pellet cells (10 minutes, 1000 RPM) and collect 200 ul per well of the supernatant, being careful not to disturb pellet, and transfer to a clean tube or 96-well plate. Place the supernatant plate on ice. During the 4-5 hour step (see next) perform the hexosiminidase assay. Resuspend cell pellet in 240 ul WEI-conditioned media containing 0.5% DMSO and corresponding concentration of compound. Incubate BMMC cells for 4-5 hours at 37° C. (5% CO2). After incubation, pellet cells (1000 RPM, 10 minutes) and collect 225 ul per well and place in −80° C. until ready to perform ELISAS. ELISAS are performed on appropriately diluted samples (determined empirically for each donor cell population so that the sample measurement falls within the standard curve) following the supplier's instructions.

A short description of series [3]: Pilot dose finding studies (oral). It counts as in vivo.

The values that follow come from US8158621B2, “Methods of treating or preventing autoimmune diseases with 2,4-pyrimidinediamine compounds” (Rigel Pharmaceuticals, Inc., priority 2002, dated 2012).

The structures appear in SMILES notation.

On to `Oc1cccc(Nc2ncc(F)c(Nc3cccc(O)c3)n2)c1` [Compound R921218], for which the genetic toxicology testing entry in series [1] is given as “no evidence for mutagenic or elastogenic potential”. The IC50 in series [2] amounted to 766 nM.
On to `CNC(=O)COc1cccc(Nc2ncc(F)c(Nc3ccc4c(c3)NCCO4)n2)c1` [Compound R921219], for which the doses not tolerated in series [3] (multiple (7-day) doses) is reported as at least 200 mg/kg/day. For the same compound, in series [3] (single oral dose), the “NOEL (no observed effect level)” value is listed as 600 mg/kg.
